In US12203070B2, “Gene knockout of NRF2 for treatment of cancer” (Christiana Care Gene Editing Institute , Inc., priority 2019, dated 2025):
Values joined by “and” are separate entries in the source; they are usually repeats but may differ in a detail not shown here. Equal entries are not always repeated. “Also recorded” adds a separate entry of the source.

Legend:
wild type A549 cells = assay: MTS cell proliferation assay after drug exposure, wild type cells; format: cell-based, human
Description: (§1) Cell viability was evaluated using the CellTiter 96 Aqueous Non-Radioactive Cell Proliferation Assay (Promega, Madison, WI). A549 cell lines were plated at 2×10^3 cells per well and allowed to culture for 24 hours. The cell media was then aspirated, the cells washed with PBS, then exposed to the MTS reagent for 3 hours. After 3 hours of MTS bio-reduction by proliferating cells, the formazan product's absorbance was measured using a 450 nm filter on an Infinite 2000 PRO microplate reader (Tecan, Mannadorf, Switzerland). Cell viability after drug exposure was evaluated using the CellTiter 96 Aqueous Non-Radioactive Cell Proliferation Assay. A549 cell lines were plated at 2×10^3 cells per well and allowed to culture for 24 hours. The cells were then treated with cisplatin, carboplatin, or a combination of cisplatin and vinorelbine for three days. The cell media was then aspirated, the cells washed with PBS, then exposed to the MTS reagent for 3 hours. After 3 hours of MTS bio-reduction by proliferating cells, the formazan product's absorbance was measured using a 450 nm filter on an Infinite 2000 PRO microplate reader.

[1] = system: NRF2 knockout A549 cells (2-11); assay: MTS cell proliferation assay after drug exposure, NRF2 knockout cells; format: cell-based, human; conditions: 2-11 knockout A549 cells, 72 hours; for chemosensitivity (MTS proliferation): increasing dosages
Description: as §1

[2] = system: NRF2 knockout A549 (2-11) tumors; assay: Xenograft mouse model, NRF2 knockout A549 (2-11) tumors; format: in vivo, athymic nude mice; conditions: for tumor growth: 16 days
Description: The animal trials presented herein were carried out at Washington Biotech Inc., Simpsonville Maryland, under animal use and care protocol (SOP 505, SOP 520, SOP 522, SOP 1610, SOP1650) approved by the animal care and use committee of Washington Biotechnology Inc. (AAALAC accredited Animal Welfare Assurance number A4192-01). The human xenograft model was established using methodology reported previously. […] et al., Biomed Res. Int. 2015, 1-17 (2015). Female athymic nude mice (Envigo, 5-6 weeks old) were used in this study. Approximately 5×10^6 cells (wild type A549 or homozygous knockout (clonal expansion 2-11)) suspended in PBS with 20% Matrigel were injected subcutaneously into right flank of each mouse. Tumor volume was measured three times a week with a digital caliper once palpable, and calculated using the formula, tumor size=ab^2/2, where 'a' is the larger and 'b' is the smaller of the two dimensions. When tumors grew up to a mean volume of around 100 mm^3, A549 tumor bearing mice or A549-2-11 tumor bearing mice were randomly divided into 7 groups (N=5 for each group) respectively and subject to dose/regimen-finding study. […] Tumor volume and body weight was closely monitored over time. After 16 days, the animals were sacrificed, with tumor removed, weighed and processed for molecular analysis. Mice were euthanized. The data were expressed as mean±SD. Student's t-test and one-way or two-way ANOVA was used to assess the significance of difference. […] A549 xenografts were resected on day 16, snap frozen in liquid nitrogen and stored in -80° C. until usage. All immunofluorescence staining was performed as previously described. Wang et al., Investig. Opthalmology Vis. Sci. 58, 3896 (2017). Briefly, tumors were embedded in Optimum Cutting Temperature (Tissue Tek, Torrance, CA, USA) and 16-μm-thick sections were obtained with a Leica CM3050 cryostat (Leica Microsystems, Buffalo Grove, IL, USA), and mounted on slides. Slides were fixed and incubated with blocking buffer for 1 hour at room temperature. […]

NRF2 gene = assay: TIDE indel analysis of bulk sorted eGFP+ A549 cells transfected with pX458 CRISPR/Cas9 constructs; format: cell-based, human; conditions: bulk sorted eGFP+ A549 population, pX458 plasmid
Description: A549 cells were transfected at a concentration of 5×10^5 cells/100 μl in 4 mm gap cuvette (BioExpress, Kaysville, UT, USA). NRF2 targeting pX458 constructs were separately electroporated (250 V. LV, 13 ms pulse length, 2 pulses, 1 s interval) into A549 cells using a Bio-Rad Gene Pulser XCell Electroporation System (Bio-Rad Laboratories, Hercules, CA, USA). Cells were then recovered in 6-well plates with complete growth media at 37° C. for 72 hours prior to sorting. […] Clones were expanded and transferred to larger plates as the individual clones reached confluence, with DNA isolation occurring when cells reached confluence in a six-well plate (1×10^6 cells/mL).
CRISPR/Cas9 targeted A549 clones were PCR amplified (forward 5′-[…] (SEQ ID NO: 5), reverse 5′-[…] (SEQ ID NO: 6)) using Amplitaq Gold Fast PCR Master Mix (Applied Biosystems, Foster City, CA). Briefly, template DNA, primers, water and master mix were combined and cycled: 95° C. for 10 minutes, (96° C. for 3 s, 60° C. for 3 s, 68° C. for 5 s)×35 cycles, and 72° C. for 10 s. The 402 bp products were purified (Qiagen, Hilden, Germany) and Sanger sequenced using the forward PCR primer. Clonal allelic analyses of individual A549 cell clones were analyzed by the software program, Tracking of Indels by DEcomposition (TIDE), to determine the individual sub-sequences within the multi-peaked breakdown product after CRISPR/Cas9 activity. […]

## N.N.[Cl][Pt][Cl] [cisplatin]
Wild type A549 cells; wild type A549, 72 hours
  concentration up to which a slight increase in cell proliferation is seen: up to 3 μM
  final concentration at which proliferation is adversely affected: 5 µM and 10 µM
Wild type A549 cells; wild type A549, increasing dosages, 72 hours
  response of cell proliferation to drug (MTS): resistant to high dosages of Cisplatin
[1]
  concentration at and above which proliferation is lost: ≥ 1 µM
  chemosensitivity (MTS proliferation): increase in chemosensitivity in a dose-dependent fashion
[2]; cisplatin 2 mg/kg tail vein on day 0, 3, 6, 9
  tumor growth: proliferation of the implanted cells is arrested; also recorded: smallest tumors
[2]; cisplatin 2 mg/kg, tumors resected day 16, compared to saline
  Ki67 staining of xenograft tumors: even lower levels of Ki67

## N.N.O=C([O-])C1(C(=O)[O-])CCC1.[Pt+2] [carboplatin]
[1]; listed as Carboplatin
  chemosensitivity (MTS proliferation): reflected what was observed in the experiments using cisplatin
[2]; 25 mg/kg carboplatin tail vein on day 0, 3, 6, 9
  tumor growth: same reduced proliferation and growth trend described above is reproduced

## 5′-UGAUUUAGACGGUAUGCAACAGG (listed as RNA, chemistry not fully specified) [gRNA2]
NRF2 gene
  indels (TIDE), NRF2 disruption: significant amount of indels

## 5′-UCGAUGUGACCGGGAAUAUCAGG (listed as RNA, chemistry not fully specified) [gRNA1]
NRF2 gene
  indels (TIDE), NRF2 disruption: significant amount of indels
